Read-outs that look alike come from different tables or passages of the source.
Experiment: Study 1 Part 1: ascending single-dose PK in healthy men
Type: in vivo, human
Conditions: for Tmax / AUC(0-inf) / AUC(0-t) / Cmax / Vd/F / half-life: male, human, plasma
Text: Study 1 was a 2-part single-center trial in healthy adult male volunteers.
Part 1 of the study enrolled and randomized 55 healthy men (placebo, n=14; 2-, 5-, 15, 25-, 50, and 100-mg doses, n=6 each; 150-mg dose, n=5). Eight healthy men participated in Part 2. […]

Question: What does the source list for `CC(C)(NC(=O)O[C@@H]1CN2CCC1CC2)c1csc(-c2ccc(F)cc2)n1` [Compound 2, (S)-quinuclidin-3-yl 2-(2-(4-fluorophenyl)thiazol-4-yl)propan-2-ylcarbamate]?
Answer: CL/F, Geometric mean (CV) (2 mg single dose, N = 6): 6.3 (22.0) L/h; CL/F, Geometric mean (CV) (5 mg single dose, N = 6): 5.8 (17.3) L/h; CL/F, Geometric mean (CV) (15 mg single dose, N = 6): 5.6 (32.2) L/h; CL/F, Geometric mean (CV) (25 mg single dose, N = 6): 5.0 (25.3) L/h; tmax, median (25 mg single dose, N = 6): 5.00 h; CL/F, Geometric mean (CV) (50 mg single dose, N = 6): 5.5 (34.9) L/h; CL/F, Geometric mean (CV) (100 mg single dose, N = 6): 5.3 (23.4) L/h; tmax, median (100 mg single dose, N = 6): 3.00 h; CL/F, Geometric mean (CV) (150 mg single dose, N = 5): 5.6 (26.7) L/h; Tmax (oral, 2 mg single dose, N = 6, read-out: tmax, median): 3.5 h; AUC(0-inf) (oral, 2 mg, 2 mg single dose, N = 6, read-out: AUCinf, Geometric mean (CV)): 0.237 µg·h/mL; AUC(0-inf) (oral, 2 mg, 2 mg single dose, N = 6, read-out: AUCinf, Mean (SD)): 0.243 µg·h/mL; AUC(0-t) (oral, 2 mg, 2 mg single dose, N = 6, read-out: AUClast, Geometric mean (CV)): 0.209 µg·h/mL; AUC(0-t) (oral, 2 mg, 2 mg single dose, N = 6, read-out: AUClast, Mean (SD)): 0.214 µg·h/mL; Cmax (oral, 2 mg, 2 mg single dose, N = 6, read-out: Cmax, Geometric mean (CV)): 0.0056 µg/mL; Cmax (oral, 2 mg, 2 mg single dose, N = 6, read-out: Cmax, Mean (SD)): 0.0057 µg/mL; Vd/F (oral, 2 mg, 2 mg single dose, N = 6, read-out: Vss/F, Geometric mean (CV)): 270 L; Vd/F (oral, 2 mg, 2 mg single dose, N = 6, read-out: Vss/F, Mean (SD)): 275 L; half-life (oral, 2 mg, 2 mg single dose, N = 6, read-out: t1/2, Geometric mean (CV) (converted)): 28.9 h; half-life (oral, 2 mg, 2 mg single dose, N = 6, read-out: t1/2, Mean (SD) (converted)): 29.2 h; Tmax (oral, 5 mg single dose, N = 6, read-out: tmax, median): 5.5 h; AUC(0-inf) (oral, 5 mg, 5 mg single dose, N = 6, read-out: AUCinf, Geometric mean (CV)): 0.643 µg·h/mL; AUC(0-inf) (oral, 5 mg, 5 mg single dose, N = 6, read-out: AUCinf, Mean (SD)): 0.652 µg·h/mL; AUC(0-t) (oral, 5 mg, 5 mg single dose, N = 6, read-out: AUClast, Geometric mean (CV)): 0.556 µg·h/mL; AUC(0-t) (oral, 5 mg, 5 mg single dose, N = 6, read-out: AUClast, Mean (SD)): 0.56 µg·h/mL; Cmax (oral, 5 mg, 5 mg single dose, N = 6, read-out: Cmax, Geometric mean (CV)): 0.0146 µg/mL; Cmax (oral, 5 mg, 5 mg single dose, N = 6, read-out: Cmax, Mean (SD)): 0.0147 µg/mL; Vd/F (oral, 5 mg, 5 mg single dose, N = 6, read-out: Vss/F, Geometric mean (CV)): 273 L; Vd/F (oral, 5 mg, 5 mg single dose, N = 6, read-out: Vss/F, Mean (SD)): 274 L; half-life (oral, 5 mg, 5 mg single dose, N = 6, read-out: t1/2, Geometric mean (CV) (converted)): 32.5 h; half-life (oral, 5 mg, 5 mg single dose, N = 6, read-out: t1/2, Mean (SD) (converted)): 33.3 h; Tmax (oral, 15 mg single dose, N = 6, read-out: tmax, median): 3.5 h; AUC(0-inf) (oral, 15 mg, 15 mg single dose, N = 6, read-out: AUCinf, Geometric mean (CV)): 1.99 µg·h/mL; AUC(0-inf) (oral, 15 mg, 15 mg single dose, N = 6, read-out: AUCinf, Mean (SD)): 2.07 µg·h/mL; AUC(0-t) (oral, 15 mg, 15 mg single dose, N = 6, read-out: AUClast, Geometric mean (CV)): 1.76 µg·h/mL; AUC(0-t) (oral, 15 mg, 15 mg single dose, N = 6, read-out: AUClast, Mean (SD)): 1.83 µg·h/mL; Cmax (oral, 15 mg, 15 mg single dose, N = 6, read-out: Cmax, Geometric mean (CV)): 0.0507 µg/mL; Cmax (oral, 15 mg, 15 mg single dose, N = 6, read-out: Cmax, Mean (SD)): 0.053 µg/mL; Vd/F (oral, 15 mg, 15 mg single dose, N = 6, read-out: Vss/F, Geometric mean (CV)): 233 L; Vd/F (oral, 15 mg, 15 mg single dose, N = 6, read-out: Vss/F, Mean (SD)): 245 L; half-life (oral, 15 mg, 15 mg single dose, N = 6, read-out: t1/2, Geometric mean (CV) (converted)): 29 h; half-life (oral, 15 mg, 15 mg single dose, N = 6, read-out: t1/2, Mean (SD) (converted)): 29.7 h; AUC(0-inf) (oral, 25 mg, 25 mg single dose, N = 6, read-out: AUCinf, Geometric mean (CV)): 3.69 µg·h/mL; AUC(0-inf) (oral, 25 mg, 25 mg single dose, N = 6, read-out: AUCinf, Mean (SD)): 3.81 µg·h/mL; AUC(0-t) (oral, 25 mg, 25 mg single dose, N = 6, read-out: AUClast, Geometric mean (CV)): 3.24 µg·h/mL; AUC(0-t) (oral, 25 mg, 25 mg single dose, N = 6, read-out: AUClast, Mean (SD)): 3.38 µg·h/mL; Cmax (oral, 25 mg, 25 mg single dose, N = 6, read-out: Cmax, Geometric mean (CV)): 0.0799 µg/mL; Cmax (oral, 25 mg, 25 mg single dose, N = 6, read-out: Cmax, Mean (SD)): 0.0844 µg/mL; Vd/F (oral, 25 mg, 25 mg single dose, N = 6, read-out: Vss/F, Geometric mean (CV)): 228 L; Vd/F (oral, 25 mg, 25 mg single dose, N = 6, read-out: Vss/F, Mean (SD)): 240 L; half-life (oral, 25 mg, 25 mg single dose, N = 6, read-out: t1/2, Geometric mean (CV) (converted)): 29.8 h; half-life (oral, 25 mg, 25 mg single dose, N = 6, read-out: t1/2, Mean (SD) (converted)): 30.2 h; Tmax (oral, 50 mg single dose, N = 6, read-out: tmax, median): 4 h; AUC(0-inf) (oral, 50 mg, 50 mg single dose, N = 6, read-out: AUCinf, Geometric mean (CV)): 6.8 µg·h/mL; AUC(0-inf) (oral, 50 mg, 50 mg single dose, N = 6, read-out: AUCinf, Mean (SD)): 7.13 µg·h/mL; AUC(0-t) (oral, 50 mg, 50 mg single dose, N = 6, read-out: AUClast, Geometric mean (CV)): 6.07 µg·h/mL; AUC(0-t) (oral, 50 mg, 50 mg single dose, N = 6, read-out: AUClast, Mean (SD)): 6.31 µg·h/mL; Cmax (oral, 50 mg, 50 mg single dose, N = 6, read-out: Cmax, Geometric mean (CV)): 0.173 µg/mL; Cmax (oral, 50 mg, 50 mg single dose, N = 6, read-out: Cmax, Mean (SD)): 0.181 µg/mL; Vd/F (oral, 50 mg, 50 mg single dose, N = 6, read-out: Vss/F, Geometric mean (CV)): 232 L; Vd/F (oral, 50 mg, 50 mg single dose, N = 6, read-out: Vss/F, Mean (SD)): 239 L; half-life (oral, 50 mg, 50 mg single dose, N = 6, read-out: t1/2, Geometric mean (CV) (converted)): 28.5 h; half-life (oral, 50 mg, 50 mg single dose, N = 6, read-out: t1/2, Mean (SD) (converted)): 28.9 h; AUC(0-inf) (oral, 100 mg, 100 mg single dose, N = 6, read-out: AUCinf, Geometric mean (CV)): 14.1 µg·h/mL; AUC(0-inf) (oral, 100 mg, 100 mg single dose, N = 6, read-out: AUCinf, Mean (SD)): 14.4 µg·h/mL; AUC(0-t) (oral, 100 mg, 100 mg single dose, N = 6, read-out: AUClast, Geometric mean (CV)): 12.8 µg·h/mL; AUC(0-t) (oral, 100 mg, 100 mg single dose, N = 6, read-out: AUClast, Mean (SD)): 13 µg·h/mL; Cmax (oral, 100 mg, 100 mg single dose, N = 6, read-out: Cmax, Geometric mean (CV)): 0.372 µg/mL; Cmax (oral, 100 mg, 100 mg single dose, N = 6, read-out: Cmax, Mean (SD)): 0.374 µg/mL; Vd/F (oral, 100 mg, 100 mg single dose, N = 6, read-out: Vss/F, Geometric mean (CV)): 212 L; Vd/F (oral, 100 mg, 100 mg single dose, N = 6, read-out: Vss/F, Mean (SD)): 213 L; half-life (oral, 100 mg, 100 mg single dose, N = 6, read-out: t1/2, Geometric mean (CV) (converted)): 27.6 h; half-life (oral, 100 mg, 100 mg single dose, N = 6, read-out: t1/2, Mean (SD) (converted)): 27.8 h; Tmax (oral, 150 mg single dose, N = 5, read-out: tmax, median): 4 h; AUC(0-inf) (oral, 150 mg, 150 mg single dose, N = 5, read-out: AUCinf, Geometric mean (CV)): 19.9 µg·h/mL; AUC(0-inf) (oral, 150 mg, 150 mg single dose, N = 5, read-out: AUCinf, Mean (SD)): 20.6 µg·h/mL; AUC(0-t) (oral, 150 mg, 150 mg single dose, N = 5, read-out: AUClast, Geometric mean (CV)): 18 µg·h/mL; AUC(0-t) (oral, 150 mg, 150 mg single dose, N = 5, read-out: AUClast, Mean (SD)): 18.6 µg·h/mL; Cmax (oral, 150 mg, 150 mg single dose, N = 5, read-out: Cmax, Geometric mean (CV)): 0.52 µg/mL; Cmax (oral, 150 mg, 150 mg single dose, N = 5, read-out: Cmax, Mean (SD)): 0.529 µg/mL; Vd/F (oral, 150 mg, 150 mg single dose, N = 5, read-out: Vss/F, Geometric mean (CV)): 223 L; Vd/F (oral, 150 mg, 150 mg single dose, N = 5, read-out: Vss/F, Mean (SD)): 228 L; half-life (oral, 150 mg, 150 mg single dose, N = 5, read-out: t1/2, Geometric mean (CV) (converted)): 26.4 h; half-life (oral, 150 mg, 150 mg single dose, N = 5, read-out: t1/2, Mean (SD) (converted)): 26.9 h; half-life (po, single oral doses of 2 to 150 mg, read-out: geometric mean t1/2 (converted)): 28.9 h; median time of Cmax (single oral doses of 2 to 150 mg): 3 to 5.5 h

Reference: patent US12083115B2, “Methods for treating neurological symptoms associated with lysosomal storage diseases” (Genzyme Corporation, priority 2020, dated 2024)
